# PubChem BioAssay (NCI)
#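 Tested at 5 concentrations; 48 h exposure; 96-well plates; endpoints linearly interpolated, else capped at highest concentration. The concentration for 50% growth inhibition is given as GI50. Definition used: TGI = concentration required for complete inhibition of growth.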
# Key:
# Assay in all cases: NCI-60 cell line screen, 48 h
# [1] = tested on: NCI-H522 lung
# [2] = tested on: DMS 273 small cell lung
# [3] = tested on: U251 CNS
# [4] = tested on: M14 melanoma
# [5] = tested on: HCT-15 colon
# [6] = tested on: SK-MEL-2 melanoma
# [7] = tested on: DLD-1 colon
# [8] = tested on: OVCAR-3 ovarian
# [9] = tested on: OVCAR-8 ovarian
# [10] = tested on: MOLT-4 leukemia
# [11] = tested on: HOP-92 NSCLC
# [12] = tested on: TK-10 renal
# [13] = tested on: SW-620 colon
# [14] = tested on: SF-268 CNS
# [15] = tested on: SNB-19 CNS
# [16] = tested on: KM20L2 colon
# [17] = tested on: SN12C renal
# [18] = tested on: MALME-3M melanoma
# [19] = tested on: LOX IMVI melanoma
# [20] = tested on: SNB-75 CNS
# [21] = tested on: LXFL 529 NSCLC
# [22] = tested on: 786-0 renal
# [23] = tested on: UACC-62 melanoma
# [24] = tested on: SK-MEL-5 melanoma
# [25] = tested on: K-562 leukemia
# [26] = tested on: SF-539 CNS
# [27] = tested on: SK-MEL-28 melanoma
# [28] = tested on: NCI-H460 lung
# [29] = tested on: HT29 colon
# [30] = tested on: HL-60(TB) leukemia
# [31] = tested on: SNB-78 CNS
# [32] = tested on: A549 NSCLC
# [33] = tested on: DMS 114 small cell lung
# [34] = tested on: UO-31 renal
# [35] = tested on: CCRF-CEM leukemia
# [36] = tested on: EKVX NSCLC
# [37] = tested on: OVCAR-5 ovarian
# [38] = tested on: RPMI-8226 leukemia
# [39] = tested on: ACHN renal
# [40] = tested on: M19-MEL melanoma
# [41] = tested on: UACC-257 melanoma
# [42] = tested on: HCT-116 colon
# [43] = tested on: SK-OV-3 ovarian
# [44] = tested on: IGROV1 ovarian
# [45] = tested on: COLO 205 colon
# [46] = tested on: KM12 colon
# [47] = tested on: NCI-H23 lung
# [48] = tested on: A498 renal
# [49] = tested on: OVCAR-4 ovarian
smiles,measurement,setting,value
[Co+2].[O-]c1ccccc1C=NCc1ccccc1.[O-]c1ccccc1C=NCc1ccccc1,GI50,[1],45.7 µM
same,TGI,[1],> 100 µM
same,GI50,[2],95.8 µM
same,TGI,[2],> 100 µM
same,GI50,[3],47.2 µM
same,TGI,[3],> 100 µM
same,GI50,[4],28.3 µM
same,TGI,[4],> 100 µM
same,GI50,[5],26.3 µM
same,TGI,[5],> 100 µM
same,GI50,[6],55.7 µM
same,TGI,[6],> 100 µM
same,GI50,[7],38.8 µM
same,TGI,[7],> 100 µM
same,GI50,[8],8.06 µM
same,TGI,[8],> 100 µM
same,GI50,[9],99.2 µM
same,TGI,[9],> 100 µM
same,GI50,[10],6.37 µM
same,TGI,[10],> 100 µM
same,GI50,[11],11.1 µM
same,TGI,[11],92.4 µM
same,GI50,[12],> 100 µM
same,TGI,[12],> 100 µM
same,GI50,[13],41.4 µM
same,TGI,[13],> 100 µM
same,GI50,[14],11.6 µM
same,TGI,[14],> 100 µM
same,GI50,[15],59.4 µM
same,TGI,[15],> 100 µM
same,GI50,[16],> 100 µM
same,TGI,[16],> 100 µM
same,GI50,[17],80.1 µM
same,TGI,[17],> 100 µM
same,GI50,[18],21.1 µM
same,TGI,[18],> 100 µM
same,GI50,[19],77.2 µM
same,TGI,[19],> 100 µM
same,GI50,[20],21.3 µM
same,TGI,[20],69.6 µM
same,GI50,[21],17.2 µM
same,TGI,[21],> 100 µM
same,GI50,[22],34.7 µM
same,TGI,[22],> 100 µM
same,GI50,[23],21.1 µM
same,TGI,[23],> 100 µM
same,GI50,[24],33.7 µM
same,TGI,[24],> 100 µM
same,GI50,[25],32.8 µM
same,TGI,[25],> 100 µM
same,GI50,[26],16.3 µM
same,TGI,[26],> 100 µM
same,GI50,[27],6.9 µM
same,TGI,[27],> 100 µM
same,GI50,[28],> 100 µM
same,TGI,[28],> 100 µM
same,GI50,[29],82.6 µM
same,TGI,[29],> 100 µM
same,GI50,[30],7.85 µM
same,TGI,[30],82.1 µM
same,GI50,[31],> 100 µM
same,TGI,[31],> 100 µM
same,GI50,[32],> 100 µM
same,TGI,[32],> 100 µM
same,GI50,[33],28.7 µM
same,TGI,[33],> 100 µM
same,GI50,[34],17.1 µM
same,TGI,[34],82.9 µM
same,GI50,[35],6.92 µM
same,TGI,[35],> 100 µM
same,GI50,[36],56.6 µM
same,TGI,[36],> 100 µM
same,GI50,[37],62.7 µM
same,TGI,[37],> 100 µM
same,GI50,[38],31.6 µM
same,TGI,[38],> 100 µM
same,GI50,[39],31.8 µM
same,TGI,[39],> 100 µM
same,GI50,[40],39.8 µM
same,TGI,[40],> 100 µM
same,GI50,[41],35.7 µM
same,TGI,[41],> 100 µM
same,GI50,[42],10.6 µM
same,TGI,[42],> 100 µM
same,GI50,[43],> 100 µM
same,TGI,[43],> 100 µM
same,GI50,[44],64.6 µM
same,TGI,[44],> 100 µM
same,GI50,[45],91.5 µM
same,TGI,[45],> 100 µM
same,GI50,[46],67.8 µM
same,TGI,[46],> 100 µM
same,GI50,[47],51.1 µM
same,TGI,[47],> 100 µM
same,GI50,[48],> 100 µM
same,TGI,[48],> 100 µM
same,GI50,[49],53.8 µM
same,TGI,[49],> 100 µM
